This note sets out measurements from patent publication US20250388571A1, “AMP-ACTIVATED PROTEIN KINASE MODULATOR COMPOUNDS AND USES THEREOF” (Biolexis Therapeutics, Inc., priority 2024, published 2025).

“Also recorded” adds a separate entry of the source.

Broadly, the AC50 is the concentration at which the activity in the assay is half-maximal. Higher therefore signals activity only at high concentration.

One test deals with AMPK (A2/B1/G1) (Homo sapiens, UniProt P54619+P54646+Q9Y478). As to the kind of experiment: AMPK kinase binding activity in activation mode (AC50). The format is biochemical.
Test [1] concerns human cardiomyocyte cells (HCM). The test is described as follows: Glucose uptake assay, human cardiomyocyte cells. The format is cell-based. Particulars: donor not stated. On the procedure:
FIGS. 17-19 show results for glucose update assays in human cardiomyocyte cells (“HCM”-healthy donor) (Promocell, cat. no. C-12810) when treated with compound I-11 (FIG. 17), compound I-7 (FIG. 18), and PF-06409577 (FIG. 19). After recovered HCM cells for 4 days, cells were starved for 3 hours in high glucose DMEM without FBS, treated with the components noted above in DMEM without FBS/glucose for 1 hour, and glucose uptake was detected using a glucose uptake kit (Promega). […] The bars show (from left to right) concentrations of 100 μM, 33 μM, 11 μM, 3.7 μM, 1.23 μM, 0.41 μM, 0.14 μM, 0.045 μM, 0.015 μM, 0.005 μM, 0 μM, and insulin.
FIGS. 20-22 show results for glucose update assays in human cardiomyocyte cells (“HCM”-diabetic donor) (Promocell, cat. no. C-12810) when treated with compound I-11 (FIG. 20), compound I-7 (FIG. 21), and PF-06409577 (FIG. 22). After recovered HCM cells for 4 days, cells were starved for 3 hours in high glucose DMEM without FBS, treated with the components noted above in DMEM without FBS/glucose for 1 hour, and glucose uptake was detected using a glucose uptake kit (Promega). […] The bars show (from left to right) concentrations of 100 μM, 33 μM, 11 μM, 3.7 μM, 1.23 μM, 0.41 μM, 0.14 μM, 0.045 μM, 0.015 μM, 0.005 μM, 0 μM, and insulin.
(§1) Human skeletal myoblasts were obtained (Thermofisher; BYU) and cultured in DMEM/F12 medium with 10% FBS. For differentiation, 2% horse serum low glucose DMEM medium was employed for 72 hours. Human cardiomyocytes cells (HCM cells; Promocell) were cultured in myocyte growth medium (Promocell). Human preadipocyte HWP-c cells (Promocell) were obtained from upper arm of diabetic II donor. Human preadipocyte HWP-c cells (Promocell) were obtained from abdomen of diabetic II donor. For differentiating human preadipocytes, cells were cultured in preadipocyte growth medium to total confluency stage. The growth medium was replaced with preadipocyte differentiation medium for 72 hours, then changed to PromoCell adipocyte nutrition medium to complete the differentiation process. THLE-2 cells were cultured in BEGM from Lonza/Clonetics Corporation, Walkersville, MD 21793 (BEGM Bullet Kit; CC3170). HepG2, L6 and C2Cl2 cells were cultured in EMEM medium.
(§2) After differentiation myoblasts, preadipocyte cells were starved by removing the medium and adding 100 μL DMEM without serum. The medium was then replaced with 100 μL DMEM±1 μM insulin at indicated concentration of representative compounds without serum or glucose. The cells were then incubated for 1 hour at 37° C. in 5% CO2. The cells were then removed from the medium and 50 μL of 0.1 mM 2DG in PBS was added. Cells were incubated for 30 minutes at 25° C. 25 μL of Stop Buffer was added and samples were mixed. 25 μL of Neutralization Buffer was then added and mixed. 100 μL of 2DG6P Detection Reagent was then added and mixed. Samples were then incubated for 1 hour at 25° C. Luminescence was then recorded with 0.3-1 second integration on a luminometer.

Test [2] deals with AMPK signal pathway in HSKM cells. The test is described as follows: Western blot assay, HSKM cells. Particulars: some high dosage groups; cell type not given. The format is cell-based, human. (A western blot detects proteins with antibodies after separation by electrophoresis.)
Test [3] has as its system human hepatocytes-THLE-2 cells. As to the kind of experiment: Glucose uptake assay, THLE-2 cells. The format is cell-based. As to the method: FIGS. 13-16 show results for glucose update assays in THLE-2 cells (ATCC, cat. No. CRL-2706) when treated with compound I-11 (FIG. 13), compound I-7 (FIG. 14), MK-8722 (FIG. 15), and PF-06409577 (FIG. 16). The THLE-2 cells were starved for 3 hours in high glucose DMEM without FBS, treated with the components noted above in DMEM without FBS/glucose for 1 hour, and glucose uptake was detected using a glucose uptake kit (Promega). The bars show (from left to right) concentrations of 100 μM, 33 μM, 11 μM, 3.7 μM, 1.23 μM, 0.41 μM, 0.14 μM, 0.045 μM, 0.015 μM, 0.005 μM, 0 μM, and insulin.
as §1, §2

Test [4] has as its system human skeletal muscle cells (HSKM cells). As to the kind of experiment: Glucose uptake assay, human skeletal muscle cells. The format is cell-based. On the procedure: FIGS. 1-4 show results for cells treated with differing doses of representative compounds of Structure (I) (i.e., compound I-11 in FIG. 1 and compound I-7 in FIG. 2) as well reference compounds (i.e., PF-06409577 in FIG. 3 and MK-8722 in FIG. 4). […] Cells were starved for 3 hours in high glucose DMEM without FBS, then treated with indicated compounds in DMEM without FBS/glucose for 1 hour, and glucose uptake was detected using an uptake glucose kit (Promega). The bars show (from left to right) concentrations of 100 μM, 33 μM, 11 μM, 3.7 μM, 1.23 μM, 0.41 μM, 0.14 μM, 0.045 μM, 0.015 μM, 0.005 μM, 0 μM, and insulin.
as §1, §2

In another test the target is AMPK (A2/B1/G2) (Homo sapiens, UniProt P54646+Q9UGJ0+Q9Y478). The test is described as follows: AMPK kinase binding activity in activation mode (AC50). The format is biochemical. From the text: In Vitro AMPK Kinase Inhibition Experiments
Test [5] concerns Human white preadipocyte (HWP) cells. As to the kind of experiment: Glucose uptake assay, human white preadipocyte cells. The format is cell-based. As to conditions: human adipocyte cells / HWP-c cells, donor site not stated. As to the method:
(§3) FIGS. 5-8 show results for glucose update assays in Human white preadipocyte (HWP) cells (Promocell, cat. No. C-12735) when treated with compound I-11 (FIG. 5), compound I-7 (FIG. 6), MK-8722 (FIG. 7), and PF-06409577 (FIG. 8). HWP cells (subcutaneous upper arm of obese patient) were starved for 3 hours in DMEM without FBS, treated with the components noted above in […] DMEM without FBS/glucose for 1 hour, and glucose uptake was detected using a glucose uptake kit (Promega). […] The bars show (from left to right) concentrations of 100 μM, 33 μM, 11 μM, 3.7 μM, 1.23 μM, 0.41 μM, 0.14 μM, 0.045 μM, 0.015 μM, 0.005 μM, 0 μM, and insulin.
as §3, with “9-12” for “5-8”, “9),” for “5),”, “10),” for “6),”, “11),” for “7),”, “12).” for “8).”, “(abdomen cells)” for “(subcutaneous upper arm of obese patient)”
as §1, §2

A further test deals with AMPK (A2/B1/G3) (Homo sapiens, UniProt P54646+Q9UGI9+Q9Y478). The test is described as follows: AMPK kinase binding activity in activation mode (AC50). The format is biochemical.
The test system of test [6] is AMPK signal pathway in human cardiac myocytes (HCM). The test is described as follows: Western blot assay, human cardiomyocytes. The format is cell-based.

AMPK (A2/B1/G2), sequence (P54646 whole entry): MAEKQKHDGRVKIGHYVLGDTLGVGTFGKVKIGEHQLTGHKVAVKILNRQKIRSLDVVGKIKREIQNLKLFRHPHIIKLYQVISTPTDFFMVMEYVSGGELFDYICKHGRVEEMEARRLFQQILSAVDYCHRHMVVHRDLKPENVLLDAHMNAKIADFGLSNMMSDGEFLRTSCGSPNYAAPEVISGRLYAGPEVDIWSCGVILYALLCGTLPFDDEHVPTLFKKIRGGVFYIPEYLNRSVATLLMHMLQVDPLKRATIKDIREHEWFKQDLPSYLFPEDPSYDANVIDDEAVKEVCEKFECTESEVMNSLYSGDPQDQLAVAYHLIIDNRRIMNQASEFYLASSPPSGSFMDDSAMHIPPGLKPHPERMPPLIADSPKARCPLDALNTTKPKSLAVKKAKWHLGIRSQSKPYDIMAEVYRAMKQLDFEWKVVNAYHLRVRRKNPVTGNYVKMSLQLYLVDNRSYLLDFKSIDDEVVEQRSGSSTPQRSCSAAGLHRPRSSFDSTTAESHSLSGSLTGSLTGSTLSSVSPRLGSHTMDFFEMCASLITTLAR
AMPK (A2/B1/G2), sequence (Q9Y478 whole entry): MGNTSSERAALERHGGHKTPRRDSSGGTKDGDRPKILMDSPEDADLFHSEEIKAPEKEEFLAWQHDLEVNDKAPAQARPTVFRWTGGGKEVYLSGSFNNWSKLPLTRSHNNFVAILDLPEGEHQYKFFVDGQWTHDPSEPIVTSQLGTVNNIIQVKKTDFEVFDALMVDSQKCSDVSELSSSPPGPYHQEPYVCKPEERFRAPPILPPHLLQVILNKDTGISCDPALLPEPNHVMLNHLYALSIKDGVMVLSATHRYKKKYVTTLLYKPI
AMPK (A2/B1/G2), sequence (Q9UGJ0 whole entry): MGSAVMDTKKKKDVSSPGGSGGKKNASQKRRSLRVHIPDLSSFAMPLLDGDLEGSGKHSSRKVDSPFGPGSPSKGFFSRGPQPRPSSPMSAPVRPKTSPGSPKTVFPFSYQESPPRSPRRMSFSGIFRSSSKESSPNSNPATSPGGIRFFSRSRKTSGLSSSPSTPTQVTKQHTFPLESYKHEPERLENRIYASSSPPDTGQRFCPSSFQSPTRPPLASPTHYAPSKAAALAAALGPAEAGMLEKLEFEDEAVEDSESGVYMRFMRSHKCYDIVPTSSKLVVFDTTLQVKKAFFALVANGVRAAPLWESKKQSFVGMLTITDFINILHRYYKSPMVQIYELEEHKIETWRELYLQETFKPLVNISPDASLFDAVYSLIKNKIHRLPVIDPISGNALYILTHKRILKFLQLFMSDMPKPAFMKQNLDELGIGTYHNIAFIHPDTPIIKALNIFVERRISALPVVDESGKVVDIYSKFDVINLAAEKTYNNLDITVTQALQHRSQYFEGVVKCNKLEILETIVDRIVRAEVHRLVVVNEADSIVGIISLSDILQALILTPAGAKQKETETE
AMPK (A2/B1/G1), sequence (P54646 whole entry): as the sequence (P54646 whole entry) above
AMPK (A2/B1/G1), sequence (Q9Y478 whole entry): as the sequence (Q9Y478 whole entry) above
AMPK (A2/B1/G1), sequence (P54619 whole entry): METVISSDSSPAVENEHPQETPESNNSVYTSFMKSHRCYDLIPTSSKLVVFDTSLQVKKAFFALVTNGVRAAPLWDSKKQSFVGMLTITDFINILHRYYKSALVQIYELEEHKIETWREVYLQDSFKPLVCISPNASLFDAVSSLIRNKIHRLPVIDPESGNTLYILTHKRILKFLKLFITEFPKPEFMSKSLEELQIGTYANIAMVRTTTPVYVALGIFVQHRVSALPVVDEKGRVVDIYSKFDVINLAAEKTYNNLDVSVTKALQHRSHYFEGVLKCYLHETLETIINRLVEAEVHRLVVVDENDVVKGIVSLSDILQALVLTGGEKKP
AMPK (A2/B1/G3), sequence (P54646 whole entry): as the sequence (P54646 whole entry) above
AMPK (A2/B1/G3), sequence (Q9Y478 whole entry): as the sequence (Q9Y478 whole entry) above
AMPK (A2/B1/G3), sequence (Q9UGI9 whole entry): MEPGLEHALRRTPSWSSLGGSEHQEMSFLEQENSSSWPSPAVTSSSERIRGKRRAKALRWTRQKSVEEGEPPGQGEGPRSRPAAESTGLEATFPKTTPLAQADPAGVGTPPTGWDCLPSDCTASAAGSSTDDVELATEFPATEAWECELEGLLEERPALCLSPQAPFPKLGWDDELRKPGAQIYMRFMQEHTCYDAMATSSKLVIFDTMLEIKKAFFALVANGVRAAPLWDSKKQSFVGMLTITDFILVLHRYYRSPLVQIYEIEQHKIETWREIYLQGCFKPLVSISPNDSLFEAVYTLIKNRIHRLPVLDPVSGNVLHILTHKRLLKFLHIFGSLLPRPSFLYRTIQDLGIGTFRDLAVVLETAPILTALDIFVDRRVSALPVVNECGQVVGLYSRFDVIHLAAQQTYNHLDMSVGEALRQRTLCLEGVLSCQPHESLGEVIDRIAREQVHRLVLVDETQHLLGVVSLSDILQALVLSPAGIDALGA

As for `O=c1[nH]c(-c2c[nH]c3ccc(-c4ccc(C5(O)CCC5)cc4)cc23)no1` [Compound I-10, 3-(5-(4-(1-hydroxycyclobutyl)phenyl)-1H-indol-3-yl)-1,2,4-oxadiazol-5(4H)-one], the AC50 on AMPK (A2/B1/G1), on AMPK (A2/B1/G2) and at AMPK (A2/B1/G3) was 10 to 500 nM in each case. In addition, the glucose uptake entry in [1] is recorded as “did not induce glucose uptake in dose-dependent manner”; in [3], “induced glucose uptake”; in test [4] (starved, treated 1 hour), “induced glucose uptake; also recorded: increased glucose uptake”; in test [5] it was “induced glucose uptake”. Moreover, the “p-AMPK, p-ACC, and p-Raptor expression” value in test [2] is on record as “could induce”.
In the case of `O[C@@H]1CO[C@H]2[C@@H]1OC[C@H]2Oc1nc2nc(-c3ccc(-c4ccccc4)cc3)c(Cl)cc2[nH]1` [MK-8722, reference compound], the glucose uptake result in test [1] is “could increase glucose uptake”. In addition, the “p-ACC/p-AMPK and AMPKα2β2γ3 expression” value in [6] is recorded as “may be able to increase”. Besides, the “dose dependence of glucose uptake (printed: activation of insulin / AMPK activation)” value in test [4] (100 μM to 0.005 μM, 1 hour) is given as “highly variable”.
